Reference: patent US20120114797A1, “TALAROMYCES STRAINS AND ENZYME COMPOSITIONS” (DSM IP ASSETS B.V., priority 2009, published 2012)

Key:
TEC-180 = assay: MIC of 2-deoxyglucose on YNB+agar plates, TEC-180; assay type: cell-based, Talaromyces emersonii; details: 10^7/ml spore suspensions of TEC-180 on YNB+agar plates
TEC-142 = assay: MIC of glucose analogs on YNB+agar plates, TEC-142; assay type: cell-based, Talaromyces emersonii; details: 10^7/ml spore suspensions of TEC-142 on YNB+agar plates
Description: MIC values of various glucose analogs (2-deoxyglucose, 1-thioglucose, 5-thioglucose) are determined by examining growth after inoculation of 0.1 ml dilutions of 10^7/ml spore suspensions of TEC-142 on YNB+agar plates with increasing concentrations of analogs.
The MIC value of 2-deoxyglucose (DOG) was determined by examining growth after inoculation of 0.1 ml dilutions of 10^7/ml spore suspensions of TEC-142 on YNB+agar plates with increasing concentrations of analog.

Row | MIC (TEC-180) | Structure (SMILES) | MIC (TEC-142)
1 | 500 µg/mL | O=CC[C@@H](O)[C@H](O)[C@H](O)CO [2-deoxyglucose, 2-deoxy-D-glucose] | 500 µg/mL
2 | – | OC[C@@H](O)[C@@H](O)[C@H](O)[C@@H](O)C=S [1-thioglucose] | 4000 µg/mL
